According to article PMC8389922, “First-in-Class Cyclic Temporin L Analogue: Design, Synthesis, and Antimicrobial Assessment” (Journal of Medicinal Chemistry, 2021):
Values after ≈ are worked out from the molar mass of the structure shown. Bridge positions count the residues as written; N and C are the ends. Square brackets hold non-standard residues; d marks the D form. Peptide text beside a SMILES is read from it.

Experiments:
in vitro = details: male, human, 90% fresh human serum
Protocol: Peptides were incubated with 90% fresh human serum at 37 ± 1 °C within 12 h.[69] The percentage of intact peptide was monitored by calculating the peak area of the chromatogram from RP-HPLC analysis.
The peptide was incubated in a 1.5 mL eppendorf tube with human serum at a final concentration of 0.2 mM, and the mixture was incubated at 37 ± 1 °C for different periods (0.25, 0.75, 1.5, 2, 3, 4, 6, 7, 8, and 12 h). After the incubation period, an aliquot of reaction solution was taken and added MeCN (double volume respect to the aliquot) for the precipitation of serum proteins present in human serum. The produced cloudy solution was cooled (4 °C) for 15 min and then centrifuged at 13 000 rpm for 10 min to remove the serum protein as pellet. Then, the supernatant was analyzed by RP-UHPLC using a linear elution gradient from 10 to 90% MeCN (0.1% TFA) in water (0.1% TFA) over 20 min. A flow rate of 1 mL/min was employed, and the absorbance of the eluting peaks was detected at 220 nm. The proteolytic stability assay was repeated in triplicate.

ANTS/DPX leakage assay = details: peptide 5–50 μM, 10 min
Protocol: The destabilization of membrane vesicles by 12 was explored measuring its effect on the release of encapsulated fluorophores in both LUVs mimicking Gram-positive and Gram-negative membranes. ANTS and DPX fluorophores were encapsulated in LUVs, and ANTS release was measured to evaluate the transient pore formation.
The dry lipid films (Cf = 100 μM) were dissolved with a solution of ANTs (12.5 mM) and DPX (45 mM) in water (2 mL) and then lyophilized overnight. The lipid films with encapsulated ANTS and DPX were hydrated with PBS 1× buffer and treated to obtain LUVs using the extrusion method.[81] Then, nonencapsulated ANTs and DPX were separated from liposomes by gel filtration using a Sephadex G-50 column (1.5 cm × 10 cm) at room temperature. Initially, liposomes contain both ANTs and DPX, and DPX efficiently quenches ANT fluorescence by collisional transfer.[82] When LUVs were treated with peptide concentrations of 5, 10, 15, 20, 30, and 50 μM, we measured the leakage of vesicles by measuring the dequenching of ANTS released into the medium. Changes in the fluorescence of 2 mL of ANTS/DPX LUV samples were monitored setting an excitation fluorescence at 385 nm (slit width, 5 nm) and a fluorescence emission at 512 nm (slit width, 5 nm) for 10 min after the addition of the peptide. […]

[1] = test system: S. aureus MRSA ATCC 43300; assay: In vitro time kill assay; type: cell-based, Staphylococcus aureus; details: 10^6 CFU/mL, peptide at the MIC (12.5 μM peptide 12; 25 μM peptide 9), 37 °C, CFU counts
Protocol: (§1) Thus, 12 was further tested against S. aureus ATCC 43300, a methicillin-resistant strain (MRSA), and compared with the linear precursor 9. […] No growth was observed after 24 h. Peptide 9 was bactericidal as well, by killing MRSA within 10 min, but at a higher concentration (25 μM).
Figure 7 In vitro time kill assay. […] The inhibitory effect on bacterial growth was assessed by measuring the number of CFU obtained after the treatment.
The plates were incubated at 37 °C on an orbital shaker at 120 rpm. Viability assessments were performed at 10 min, 30 min, 1 h, 2 h, and 24 h by plating 0.01 mL of undiluted and 10-fold serially diluted samples onto Mueller–Hinton plates in triplicate. After overnight incubation at 37 °C, bacterial colonies were counted and compared with counts from control cultures.

[2] = test system: S. aureus ATCC 43300, a methicillin-resistant strain (MRSA); type: cell-based, Staphylococcus aureus
Protocol: as §1
The bacterial strains used in the antimicrobial assays were the Gram-negative E. coli ATCC 25922, P. aeruginosa ATCC 27853, A. baumannii ATCC 19606, the Gram-positive S. aureus ATCC 25923, S. epidermidis ATCC 12228, and B. megaterium Bm11. Methicillin-resistant S. aureus (MRSA) ATCC 43300 was obtained from Culture Collection Center of School of Basic Medical Sciences of Lanzhou University (China).
The determination of MICs was conducted as previously reported.[61] Aliquots of 50 μL of bacterial culture appropriately diluted were added to each well of a 96-well plate to reach a final cell density of 1 × 10^6 CFU/mL and a final peptide concentration ranging from 100 to 0.78 μM (final volume 100 μL).

[3] = test system: preformed biofilm of A. baumannii ATCC 19606; details: ATCC 19606, 20 h
Protocol: (§2) Biofilm viability was determined as indicated in the Materials and General Procedures section and expressed as a percentage compared to that of untreated samples (100%). Values are the mean of at least three replicates ± SEM. Data are considered to be statistically significant as follows: *p < 0.05; ***p < 0.001; ****p < 0.0001. Biofilm eradication concentration 90, BEC90, was defined as the concentration able to reduce at least 90% of biofilm cells. TEXT PRINTED IN THE PICTURE: 9: S. aureus ATCC 25923: BEC90 = 25 μM; A. baumannii ATCC 19606: BEC90 > 100 μM | 12: S. aureus ATCC 25923: BEC90 = 12.5 μM; A. baumannii ATCC 19606: BEC90 = 25 μM
(§3) Preformed biofilms of S. aureus ATCC 25923 and A. baumannii ATCC 19606 were obtained as previously reported.[77] Microbial cultures were grown in Luria-Bertani broth (LB) at 37 °C to an optical density (OD) of 0.8 (λ = 590 nm) and then diluted in LB to a cell density of 1 × 10^6 colony-forming units (CFUs)/mL. Aliquots of 100 μL were dispensed into the wells of a 96-well plate, which was incubated for 20 h at 37 °C to allow biofilm formation. The medium containing planktonic cells was then aspirated from the wells and washed twice with 150 μL of phosphate-buffered saline (PBS) to remove any nonadherent cells. […] After treatment, each well was rinsed twice with PBS, as previously described. Then, 150 μL of MTT solution (0.5 mg/mL) were added to each well to evaluate biofilm cell viability. The plates were incubated at 37 °C for 4 h in the dark, and the reaction was stopped by adding sodium dodecyl sulfate (SDS) (at a final concentration of 5% v/v). The absorbance of each well was recorded at 570 nm using a microplate reader (Infinite M200; Tecan, Salzburg, Austria), and the percentage of biofilm cells viability was calculated with respect to the untreated samples (100%).

[4] = test system: preformed biofilm of S. aureus ATCC 25923
Protocol: as §2, §3

## CC[C@H](C)[C@H](NC(=O)[C@H](CCCNC(=N)N)NC(=O)[C@@H]1CCC(=O)NCCCC[C@H](NC(=O)[C@H](Cc2ccccc2)NC(=O)[C@H](Cc2c[nH]c3ccccc23)NC(=O)[C@@H]2CCCN2C(=O)[C@@H](NC(=O)[C@@H](N)Cc2ccccc2)C(C)C)C(=O)N[C@@H](CCCCN)C(=O)N[C@@H](Cc2ccccc2)C(=O)N[C@H](CC(C)C)C(=O)N1)C(=O)N[C@@H](CC(C)C)C(N)=O [compound 12] (H-FVPWFKKF[dL]ERIL-NH2; lactam 6-10)
In vitro
  half-life at 0.2 mM: ~6 h
  remaining at 1.5 h, 0.2 mM: ~70%
ANTS/DPX leakage assay; LUVs mimicking Gram-negative membranes
  leakage of LUVs (ANTS release): significant leakage ability
ANTS/DPX leakage assay; LUVs mimicking Gram-positive membranes
  leakage of LUVs (ANTS release): low leakage effect
[1]
  time within which the MRSA strain was killed: ≤ 30 min
[2]
  MIC S. aureus ATCC 43300 (MRSA): 12.5 µM (≈ 21.3 µg/mL)
[3]
  Biofilm Eradication Concentration 90 (BEC90) A. baumannii ATCC 19606: 25 µM
[4]; 2 h treatment, from 100 to 12.5 μM, with respect to untreated samples
  reduction of viable S. aureus biofilm cells: more than 90%
[4]; preformed 20 h biofilm, 2 h treatment in PBS at 37 °C, MTT, concentration reducing at least 90% of biofilm cells
  Biofilm Eradication Concentration 90 (BEC90) S. aureus ATCC 25923: 12.5 µM
